Test results: patent publication US7872005B2, “2-substituted heteroaryl compounds” (Synta Pharmaceuticals Corporation, priority 2004, dated 2011)

What was measured:
[1] = system: DNBS-induced distal colitis in Wistar derived rats; test: Dinitrobenzene sulfonic acid-induced inflammatory bowel syndrome model rats (distal colitis); format: in vivo, rat; details: oral, 24 and 2 hours before DNBS, then daily for 5 days; relative to net increase of vehicle+DNBS group
Description: Treatment of Crohn's disease in dinitrobenzene sulfonic acid-induced inflammatory bowel syndrome model rats: Wistar derived male or female rats weighing 200±20 g and fasted for 24 hours were used. Distal colitis was induced by intra-colonic instillation of 2,4-dinitrobenzene sulfonic acid (DNBS, 25 mg in 0.5 mL ethanol 30%) after which air (2 mL) was gently injected through the cannula to ensure that the solution remained in the colon. A test compound and/or vehicle was administered orally 24 and 2 hours before DNBS instillation and then daily for 5 days. One control group was similarly treated with vehicle alone while the other is treated with vehicle plus DNBS. The animals were sacrificed 24 hours after the final dose of test compound administration and each colon was removed and weighed. Colon-to-body weight ratio was then calculated for each animal according to the formula: Colon (g)/BW×100. The “Net” increase in ratio of Vehicle-control+DNBS group relative to Vehicle-control group was used as a base for comparison with test substance treated groups and expressed as “% Deduction.” Pyrimidine compounds of this invention (e.g., Compound 12) reproducibly had about 30% deduction. A 30% or more reduction in colon-to-body weight ratio, relative to the vehicle treated control group, was considered significant.

[2] = system: colitis in C.B-17 SCID mice; test: CD4+ CD45Rb high T cell-reconstituted SCID colitis model mice; format: in vivo, mouse
Description: Treatment of Crohn's disease in CD4^+ CD45Rb^high T cell-reconstituted SCID colitis model mice: Spleen cells were prepared from normal female BALB/c mice. For cell purification, the following anti-mouse antibodies were used to label non-CD4^+ T cells: B220 (RA3-6B2), CD11b (M1/70), and CD8α (53-6.72). All antibodies were obtained from BioSource (Camarillo, Calif.). M450 anti-rat IgG-coated magnetic beads (Dynal, Oslo, Norway) were used to bind the antibodies and negative selection was accomplished using an MPC-1 magnetic concentrator. The enriched CD4^+ cells were then labeled for cell sorting with FITC-conjugated CD45RB (16A, Pharmingen, San Diego, Calif.) and PE-conjugated CD4 (CT-CD4, Caltag, Burlingame, Calif.). CD4^+ CD45RB^high cells were operationally defined as the upper 40% of CD45Rb-staining CD4^+ cells and sorted under sterile conditions by flow cytometry. Harvested cells were resuspended at 4×10^6/mL in PBS and injected 100 μL intraperitoneally into female C.B-17 SCID mice. Pyrimidine compounds of this invention (e.g., Compound 12) and/or vehicle was orally administered once a day, 5 days per week, starting the day following the transfer. The transplanted SCID mice were weighed weekly and their clinical condition was monitored.
Colon tissue samples were fixed in 10% buffered formalin and embedded in paraffin. Sections (4 μm) collected from ascending, transverse, and descending colon were cut and stained with hematoxylin and eosin. The severity of colitis was determined based on histological examination of the distal colon sections, whereby the extent of colonic inflammation was graded on a scale of 0-3 in each of four criteria: crypt elongation, cell infiltration, depletion of goblet cells, and the number of crypt abscesses.
LP lymphocytes were isolated from freshly obtained colonic specimens. After removal of payer's patches, the colon was washed in Ca/Mg-free HBSS, cut into 0.5 cm pieces and incubated twice in HBSS containing EDTA (0.75 mM), DTT (1 mM), and antibiotics (amphotericin 2.5 μg/mL, gentamicin 50 μg/mL from Sigma) at 37° C. for 15 min. Next, the tissue was digested further in RPMI containing 0.5 mg/mL collagenase D, 0.01 mg/mL DNase I (Boehringer Manheim), and antibiotics at 37° C. LP cells were then layered on a 40-100% Percoll gradient (Pharmacia, Uppsala, Sweden), and lymphocyte-enriched populations were isolated from the cells at the 40-100% interface.
To measure cytokine production, 48-well plates were coated with 10 μg/mL murine anti-CD3ε antibody (145-2C11) in carbonate buffer (PH 9.6) overnight at 4° C. […] Murine IFNγ was measured using an ELISA kit from Endogen (Cambridge, Mass.), according to the manufacturer's instructions.

Cc1cccc(/C=N/Nc2cc(N3CCOCC3)nc(CCOC(=O)Nc3cccc(C(F)(F)F)c3)n2)c1 [Compound 12, (3-Trifluoromethyl-phenyl)-carbamic acid 2-{4-[N′-(3-methyl-benzylidene)-hydrazino]-6-morpholin-4-yl-pyrimidin-2-yl}-ethyl ester]
% Deduction (colon-to-body weight ratio) [1]: about 30%
IFNγ production by LP cells in response to anti-CD3 and anti-CD28 antibody ([2]; LP cells from treated mice, ex vivo, 48 h culture): greatly diminished the production
colonic inflammation (histological analysis) ([2]; oral, once a day, 5 days per week, compared to vehicle control): reduced colonic inflammation
colon-to-body weight ratio ([2]; oral, consistent with histological score): attenuation
suppressive effect on colonic inflammation at 10 mg/kg ([2]; oral, dose of 10 mg/kg): substantial reduction
